ChEMBL document CHEMBL1201862, “PubChem BioAssay data set” (2004)
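Tested at 5 concentrations; 48 h exposure; 96-well plates; endpoints linearly interpolated, else capped at highest concentration. The concentration for 50% growth inhibition is given as GI50.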 Activity calls are given as the source filed them. Rule as the data show it: active = GI50 up to about 1.1 µM and inactive = higher.

Key:
Assay in all cases: NCI tumour cell line growth inhibition, 48 h
MCF7 = tested on: MCF7
SW-620 = tested on: SW-620
HCC 2998 = tested on: HCC 2998
PC-3 = tested on: PC-3
DU-145 = tested on: DU-145
COLO 205 = tested on: COLO 205
SN12C = tested on: SN12C
OVCAR-3 = tested on: OVCAR-3
CAKI-1 = tested on: CAKI-1
SF-268 = tested on: SF-268
UACC-62 = tested on: UACC-62
NCI-H226 = tested on: NCI-H226
SK-MEL-2 = tested on: SK-MEL-2
HCT-15 = tested on: HCT-15
KM12 = tested on: KM12
M14 = tested on: M14
MDA-MB-435 = tested on: MDA-MB-435
RPMI-8226 = tested on: RPMI-8226
HL-60 = tested on: HL-60
K562 = tested on: K562

Row | Structure (SMILES) | GI50 (MCF7) | GI50 (SW-620) | GI50 (HCC 2998) | GI50 (PC-3) | GI50 (DU-145) | GI50 (COLO 205) | GI50 (SN12C) | GI50 (OVCAR-3) | GI50 (CAKI-1) | GI50 (SF-268) | GI50 (UACC-62) | GI50 (NCI-H226) | GI50 (SK-MEL-2) | GI50 (HCT-15) [µM] | GI50 (KM12) | GI50 (M14) | GI50 (MDA-MB-435) | GI50 (RPMI-8226) | GI50 (HL-60) | GI50 (K562)
1 | COC1=C2CC(C)CC(OC)C(OC(=O)CN)[C@H](C)/C=C(\C)C(OC(N)=O)C(OC)/C=C\C=C(/C)C(=O)NC(=CC1=O)C2=O (stereo partly drawn) | 0.339 µM (active) | 0.065 µM (active) | 1.9 µM (inactive) | 1.1 µM (active) | 1.45 µM (inactive) | 0.0562 µM (active) | 0.412 µM (active) | 0.481 µM (active) | 1.46 µM (inactive) | 3.44 µM (inactive) | 0.468 µM (active) | 10.4 µM (inactive) | 3.84 µM (inactive) | 0.899 | 1.24 µM (inactive) | 0.451 µM (active) | 0.373 µM (active) | 0.902 µM (active) | 0.123 µM (active) | 
2 | COc1ccc(/N=N/C(=O)NC(CC(C)C)C(=O)NC(C)C(=O)O)cc1 (stereo not drawn) | 27.5 µM (inactive) | 16.9 µM (inactive) | 4.46 µM (inactive) | 4.72 µM (inactive) | 6.25 µM (inactive) | 3.2 µM (inactive) | > 20.4 µM (inactive) | 28.8 µM (inactive) | > 100 µM (inactive) | > 24.3 µM (inactive) | 0.968 µM (active) | > 75.2 µM (inactive) | > 35.8 µM (inactive) | 1.3 | 29 µM (inactive) | 1.29 µM (inactive) | 1.98 µM (inactive) | 20.8 µM (inactive) | 6.22 µM (inactive) | 1.54 µM (inactive)
3 | CC(=O)/N=C1\N/C(=C\c2ccc(Cl)cc2)C(=O)N1/C=C1\C(=O)Oc2ccccc2C1=O | > 100 µM (inactive) | > 100 µM (inactive) | > 100 µM (inactive) | > 100 µM (inactive) | > 100 µM (inactive) | > 100 µM (inactive) | > 100 µM (inactive) | 77.8 µM (inactive) | > 100 µM (inactive) | 45.9 µM (inactive) | 26.3 µM (inactive) | > 100 µM (inactive) | > 100 µM (inactive) | 85.1 | > 100 µM (inactive) | > 100 µM (inactive) | 51.2 µM (inactive) | > 100 µM (inactive) | > 100 µM (inactive) | 67.3 µM (inactive)
4 | O=C1N/C(=N\N=C\c2ccccc2)C(c2ccccc2)O1 (stereo not drawn) | 68.4 µM (inactive) | 59.4 µM (inactive) | 17.1 µM (inactive) | 61.8 µM (inactive) | 53 µM (inactive) | 40.9 µM (inactive) | 71.1 µM (inactive) | 27.4 µM (inactive) | 74.1 µM (inactive) | 52.2 µM (inactive) | 75.7 µM (inactive) | 30.9 µM (inactive) | > 100 µM (inactive) | 19.8 | > 100 µM (inactive) | 54 µM (inactive) | > 100 µM (inactive) | 34.4 µM (inactive) | 30.1 µM (inactive) | 35.8 µM (inactive)
5 | COc1cc(C2c3cc4c(cc3OC(NNC(N)=O)C2C)OCO4)cc(OC)c1O (stereo not drawn) | 1.64 µM (inactive) | 1.2 µM (inactive) | 2.54 µM (inactive) | 1.67 µM (inactive) | 3.96 µM (inactive) | 2.59 µM (inactive) | 4.9 µM (inactive) | 1.03 µM (active) | 7.91 µM (inactive) | 8.26 µM (inactive) | 0.512 µM (active) | 6.65 µM (inactive) | 6.18 µM (inactive) | 13 | 0.813 µM (active) | 2.73 µM (inactive) | 0.324 µM (active) | 1.64 µM (inactive) | 0.867 µM (active) | 0.433 µM (active)
6 | CCCCCCCCCCCCC1NC(=N)NC2(CCCO2)C1C(=O)OC (stereo not drawn) | 2.9 µM (inactive) | 1.97 µM (inactive) | 6.37 µM (inactive) | 1.67 µM (inactive) | 15.3 µM (inactive) | 3.03 µM (inactive) | 8.02 µM (inactive) | 3.52 µM (inactive) | 12.8 µM (inactive) | 3.84 µM (inactive) | 3.89 µM (inactive) | 14.6 µM (inactive) | 4.29 µM (inactive) | 16.7 | 1.84 µM (inactive) | 3.33 µM (inactive) | 3.34 µM (inactive) | 2.61 µM (inactive) | 1.53 µM (inactive) | 1.91 µM (inactive)
7 | CN(C)CCNC(=O)c1cccc2nc3c4ccccc4c4ccccc4c3nc12 | 1.14 µM (inactive) | 1.58 µM (inactive) | 5.27 µM (inactive) | 1.65 µM (inactive) | 1.79 µM (inactive) | 3.89 µM (inactive) | 1.92 µM (inactive) | 3.44 µM (inactive) | 17.6 µM (inactive) | 0.569 µM (active) | 2.35 µM (inactive) | 9.86 µM (inactive) | 3.22 µM (inactive) | 1.69 | 1.56 µM (inactive) | 2.29 µM (inactive) | 1.81 µM (inactive) | 1.56 µM (inactive) | 1.76 µM (inactive) | 1.52 µM (inactive)
8 | COc1cc(C(C[N+](=O)[O-])SC(C)=O)ccc1OCc1ccccc1 (stereo not drawn) | 2.38 µM (inactive) | 3.13 µM (inactive) | 8.45 µM (inactive) | 4.47 µM (inactive) | 13.3 µM (inactive) | 5.24 µM (inactive) | 4.17 µM (inactive) | 3.01 µM (inactive) | 12 µM (inactive) | 6.14 µM (inactive) | 3.09 µM (inactive) | 7.91 µM (inactive) | 7.59 µM (inactive) | 3.08 | 4.85 µM (inactive) | 4.89 µM (inactive) | 3.08 µM (inactive) | 1.39 µM (inactive) | 0.261 µM (active) | 1.38 µM (inactive)
9 | C=C1C(=O)OC2/C=C(\C)CC/C=C(\C)CC(OC(=O)/C(=C/CO)CO)[C@@H]12 (stereo partly drawn) | 4.46 µM (inactive) | 1.69 µM (inactive) | 18.7 µM (inactive) | 16.9 µM (inactive) | 20 µM (inactive) | 2.2 µM (inactive) | 13.6 µM (inactive) | 5.7 µM (inactive) | 4.12 µM (inactive) | 20.7 µM (inactive) | 17.7 µM (inactive) | 32.8 µM (inactive) | 16.9 µM (inactive) | 5.87 | 18.1 µM (inactive) | 3.9 µM (inactive) | 5.75 µM (inactive) | 1.61 µM (inactive) | 2.72 µM (inactive) | 2.65 µM (inactive)
10 | CCOC(=O)C(Cl)(NC(=O)c1ccc(F)cc1)C(F)(F)F (stereo not drawn) | > 100 µM (inactive) | > 100 µM (inactive) | > 100 µM (inactive) | > 100 µM (inactive) | > 100 µM (inactive) | > 100 µM (inactive) | > 100 µM (inactive) | > 100 µM (inactive) | > 100 µM (inactive) | > 100 µM (inactive) |  | > 100 µM (inactive) | > 100 µM (inactive) | > 100 | 39.2 µM (inactive) | > 100 µM (inactive) | > 100 µM (inactive) | > 100 µM (inactive) | > 100 µM (inactive) | > 100 µM (inactive)
11 | NC(=O)CN1C=CCC(C(N)=O)=C1 [CARICOTAMIDE] | > 100 µM (inactive) | > 100 µM (inactive) | > 100 µM (inactive) | > 100 µM (inactive) | > 100 µM (inactive) | > 100 µM (inactive) | > 100 µM (inactive) | > 100 µM (inactive) | > 100 µM (inactive) | > 100 µM (inactive) | > 100 µM (inactive) | > 100 µM (inactive) | > 100 µM (inactive) | > 100 | > 100 µM (inactive) | > 100 µM (inactive) | > 100 µM (inactive) | > 100 µM (inactive) | > 100 µM (inactive) | > 100 µM (inactive)
12 | Fc1cc2nc3n(c2cc1F)C(c1c(F)cccc1F)SC3 (stereo not drawn) | 31.4 µM (inactive) | 45 µM (inactive) | 68.4 µM (inactive) | 37.3 µM (inactive) | 87.5 µM (inactive) | 31.3 µM (inactive) | 51.9 µM (inactive) | 34.4 µM (inactive) | 34.3 µM (inactive) | 74 µM (inactive) | 38.8 µM (inactive) | 52 µM (inactive) | 38.2 µM (inactive) | 44 | 41.1 µM (inactive) | 30.5 µM (inactive) | 35.3 µM (inactive) | 34.5 µM (inactive) | 16.8 µM (inactive) | 
13 | O=C(Nc1ccc(Cl)cc1)c1cc(S(=O)(=O)Nc2nnc3c(Cl)cc(C(F)(F)F)cn23)c(S)cc1Cl | > 100 µM (inactive) |  | > 100 µM (inactive) | 83 µM (inactive) | > 100 µM (inactive) | > 100 µM (inactive) | 84.5 µM (inactive) | > 100 µM (inactive) | > 100 µM (inactive) | 70 µM (inactive) |  | > 100 µM (inactive) | 15 µM (inactive) | > 100 | 50.4 µM (inactive) | > 100 µM (inactive) | 49.9 µM (inactive) | > 100 µM (inactive) | > 100 µM (inactive) | > 100 µM (inactive)
14 | O=c1c(C(c2ccccc2)c2c(O)oc3cc(O)ccc3c2=O)c(O)oc2cc(O)ccc12 | > 100 µM (inactive) | > 100 µM (inactive) | > 100 µM (inactive) | > 100 µM (inactive) | > 100 µM (inactive) | > 100 µM (inactive) | > 100 µM (inactive) | > 100 µM (inactive) | > 100 µM (inactive) | > 100 µM (inactive) | > 100 µM (inactive) | > 100 µM (inactive) | > 100 µM (inactive) | > 100 |  | > 100 µM (inactive) | > 100 µM (inactive) |  | > 100 µM (inactive) | > 100 µM (inactive)
